Measurements published in patent US20110237629A1, “AMINO ACID ESTER PRODRUGS AND THE USE THEREOF” (Bayer Schering Pharma Aktiengesellschaft, priority 2008, published 2011).
Structures can show the parent of a compound that is named as a salt.

Experiments:
[1] = i.v. pharmacokinetics in Wistar rats; type: in vivo; details: male Wistar rats, i.v. bolus, first measurement point
Protocol: On the day before administration of the substance, a catheter for obtaining blood is implanted in the jugular vein of the experimental animals (male Wistar rats, body weight 200-250 g) under Isofluran® anesthesia. On the day of the experiment, a defined dose of the test substance is administered as solution into the tail vein using a Hamilton® glass syringe (bolus administration, duration of administration <10 s). Blood samples (8-12 time points) are taken through the catheter sequentially over the course of 24 h after administration of the substance. Plasma is obtained by centrifuging the samples in heparinized tubes. Acetonitrile is added to a defined plasma volume per time point to precipitate proteins. After centrifugation, test substance and, where appropriate, known cleavage products of the test substance in the supernatant are determined quantitatively using a suitable LC/MS-MS method. […] Only the active ingredient (example 8A) was detectable up to the 8-hour time point too.

[2] = Stability in buffer at various pH values; type: physicochemical
Protocol: 0.3 mg of the test substance is weighed into a 2 ml HPLC vial and 0.5 ml of acetonitrile or acetonitrile/DMSO (9:1) is added. The substance is dissolved by putting the sample vessel in an ultrasonic bath for about 10 seconds. Then 0.5 ml of the respective buffer solution is added, and the sample is again treated in the ultrasonic bath.
(Buffer) solutions employed:
pH 4: 1 liter of Millipore water is adjusted to pH 4.0 with 1 N hydrochloric acid;
pH 5: 0.096 mol of citric acid and 0.2 mol of sodium hydroxide ad 1 liter of water;
pH 7.4: 90.0 g of sodium chloride, 13.61 g of potassium dihydrogen phosphate and 83.35 g of 1 N sodium hydroxide solution are made up to 1 liter with water; this solution is then further diluted 1:10 with Millipore water.
pH 8: 0.013 mol of borax and 0.021 mol of hydrochloric acid ad 1 liter of water.
5 μl portions of the test solution are analyzed by HPLC for their content of unchanged test substance, and of basic mother substance of the formula (A) formed, every hour over a period of 24 hours at 37° C. The percentage areas of the appropriate peaks are used for quantification.
HPLC method for example 1:
Agilent 1100 with DAD (G1315B), binary pump (G1312A), autosampler (G1329A), column oven (G1316A), thermostat (G1330B); column: Kromasil 100 C18, 125 mm×4 mm, 5 μm; column temperature: 30° C.; eluent A: water+5 ml perchloric acid/liter, eluent B: acetonitrile; gradient: 0 min 90% A→2.0 min 70% A→18.0 min 70% A 20.0 min 10% A→21.0 min 10% A→23.0 min 90% A→26.0 min 90% A; flow rate: 2.0 ml/min;
HPLC method for example 3:
Agilent 1100 with DAD (G1314A), binary pump (G1312A), autosampler (G1329A), column oven (G1316A), thermostat (G1330A); column: Kromasil 100 C18, 125 mm×4 mm, 5 μm; column temperature: 30° C.; eluent A: water+5 ml perchloric acid/liter, eluent B: acetonitrile; gradient: 0 min 90% A→2.0 min 64% A→18.0 min 64% A→20.0 min 10% A→21.0 min 10% A→23.0 min 90% A→26.0 min 90% A; flow rate: 2.0 ml/min UV detection: 294 nm.
HPLC method for example 11:
Agilent 1100 with DAD (G1315B), binary pump (G1312A), autosampler (G1329A), column oven (G1316A), thermostat (G1330B); column: Kromasil 100 C18, 125 mm×4 mm, 5 μm; column temperature: 30° C.; eluent A: water+5 ml of perchloric acid/liter, eluent B: acetonitrile; gradient: 0 min 90% A→2.0 min 64% A→18.0 min 64% A→20.0 min 10% A→21.0 min 10% A→23.0 min 90% A→26.0 min 90% A; flow rate: 2.0 ml/min; UV detection: 294 nm.
HPLC method for example 14:
Agilent 1100 with DAD (G1315B), binary pump (G1312A), autosampler (G1329A), column oven (G1316A), thermostat (G1330B); column: Kromasil 100 C18, 250 mm×4 mm, 5 μm; column temperature: 30° C.; eluent A: water+5 ml of perchloric acid/liter, eluent B: acetonitrile; gradient: 0 min 90% A→7.0 min 52% A→18.0 min 52% A→20.0 min 10% A→21.0 min 10% A→23.0 min 90% A -4 26.0 min 90% A; flow rate: 2.0 ml/min; UV detection: 288 nm.
HPLC method for example 18:
Agilent 1100 with DAD (G1315A), binary pump (G1312A), autosampler (G1329A), column oven (G1316A), thermostat (G1330A); column: Kromasil 100 C18, 125 mm×4 mm, 5 μm; column temperature: 30° C.; eluent A: water+5 ml of perchloric acid/liter, eluent B: acetonitrile; gradient: 0 min 90% A→6.0 min 61% A→18.0 min 61% A→20.0 min 10% A→21.0 min 10% A→23.0 min 90% A→26.0 min 90% A; flow rate: 2.0 ml/min; UV detection: 294 nm.
The ratios of the peak areas (F) at the respective time points in relation to the peak areas at the starting time are shown in Table 3 for representative exemplary embodiments: […]

[3] = Determination of the solubility (suspension shaken 24 h at room temperature, HPLC of supernatant); type: physicochemical; details: thermodynamic from solid
Protocol: The test substance is suspended in water or dilute hydrochloric acid (pH 4) or in 5% strength aqueous dextrose solution. This suspension is shaken at room temperature for 24 h. After ultracentrifugation at 224 000 g for 30 min, the supernatant is diluted with DMSO and analysed by HPLC. A two-point calibration plot of the test compound in DMSO is used for quantification.
Agilent 1100 with DAD (G1315A), quat. Pump (G1311A), autosampler CTC HTS PAL, degasser (G1322A) and column thermostat (G1316A); column: Phenomenex Gemini C18, 5 μm, 50 mm×2 mm; temperature: 40° C.; eluent A: water/phosphoric acid pH 2, eluent B: acetonitrile; flow rate: 0.7 ml/min; gradient: 0-0.5 min 85% A, 15% B; ramp 0.5-3 min 10% A, 90% B; 3-3.5 min 10% A, 90% B; ramp 3.5-4 min 85% A, 15% B; 4-5 min 85% A, 15% B.
Agilent 1100 with DAD (G1315A), quat. pump (G1311A), autosampler CTC HTS PAL, degasser (G1322A) and column thermostat (G1316A); column: VDSoptilab Kromasil 100 C18, 3.5 μm, 60 mm×2.1 mm; temperature: 30° C.; eluent A: water+5 ml of perchloric acid/liter, eluent B: acetonitrile; flow rate: 0.75 ml/min; gradient: 0-0.5 min 98% A, 2% B; ramp 0.5-4.5 min 10% A, 90% B; 4.5-6 min 10% A, 90% B; ramp 6.5-6.7 min 98% A, 2% B; 6.7-7.5 min 98% A, 2% B.
The solubilities of representative exemplary embodiments in dilute hydrochloric acid (pH 4) are shown in Table1: […]

[4] = as above; type: physicochemical; details: 0.1 M hydrochloric acid, simulated gastric fluid, thermodynamic from solid
[5] = saline or isotonic, 5% strength aqueous dextrose solution

Row | Compound | detectability of the test substance (prodrug) in plasma after i.v. administration [1] | % test substance after 4 h [F(t = 4 h) × 100/F(t = 0 h)] ([2]; pH 4, 37° C.) | % test substance after 24 h [F(t = 24 h) × 100/F(t = 0 h)] ([2]; pH 4, 37° C.) | % test substance after 4 h [F(t = 4 h) × 100/F(t = 0 h)] ([2]; pH 7.4, 37° C.) | % test substance after 24 h [F(t = 24 h) × 100/F(t = 0 h)] ([2]; pH 7.4, 37° C.) | solubility at 24 h ([3]; aqueous buffer, dilute hydrochloric acid (pH 4)) | solubility at 24 h [3, 5] | solubility at 24 h [4]
1 | C[C@H](N)C(=O)OC[C@H](COc1ccc(-c2c(C#N)c(N)nc(SCc3coc(-c4ccc(Cl)cc4)n3)c2C#N)cc1)OC(=O)[C@H](C)N [Example 1, (2S)-3-{4-[2-Amino-6-({[2-(4-chlorophenyl)-1,3-oxazol-4-yl]methyl}sulfanyl)-3,5-dicyanopyridin-4-yl]phenoxy}propane-1,2-diyl(2S,2′S)-bis(2-aminopropanoate)dihydrochloride] | no longer detectable | 99% | 98% | 90% | 53% | > 500 µg/mL | > 500 µg/mL | 
2 | N#Cc1c(N)nc(SCc2coc(-c3ccc(Cl)cc3)n2)c(C#N)c1-c1ccc(OC[C@H](O)CO)cc1 [Example 8A, 2-Amino-6-({[2-(4-chlorophenyl)-1,3-oxazol-4-yl]methyl}sulfanyl)-4-(4-{[(2R)-2,3-dihydroxypropyl]oxy}phenyl)pyridine-3,5-dicarbonitrile, reference compound] |  |  |  |  |  |  | < 1.2 µg/mL | < 0.1 µg/mL
